Test results taken from US4886805A, “Novel aminoalkylthio derivatives of triazolopyridine or triazoloquinoline, the processes for their preparation, and drugs, useful especially as analgesics, in which they are present” (Centre D'Activite Et De Recherches Pharmaceutique …, priority 1986, dated 1989).

These compounds were tested on pain reactions caused by phenylbenzoquinone (assay: Siegmund test with phenylbenzoquinone (analgesic activity after oral administration)). Conditions: Mus musculus, po, read-out: AD50 confidence limits.
Format: in vivo, male mice, CD1 strain (Charles River)
Method: This method makes it possible to assess the analgesic activity of molecules having both a peripheral and a central action.
Male mice of the CD1 strain (Charles River) and OF1 strain (Iffa Credo), weighing from 19 to 22 g, were used for the Siegmund test and the Eddy test respectively. The tests were carried out at an ambient temperature of 21°±2° C.
The products were suspended in an aqueous mixture of 1% gum arabic, 0.1% sodium chloride and 0.001% Tween 80.
One hour after administration of the product studied, 0.20 to 0.22 ml of a 0.02% aqueous-alcoholic solution of phenylbenzoquinone is administered to the mice intraperitoneally.
The number of pain reactions (twists and stretches) is counted from the 5th to the 10th minute.
The products of the examples studied were administered to groups of 6 to 12 mice by gastric intubation (0.5 ml/20 g), one hour before phenylbenzoquinone, according to the following dosage schedule:
The percentage inhibition of pain manifestations was calculated from the mean numbers of twists per group.
The 50% active doses and their confidence limits were determined from the linear regression carried out on the parameters measured.

Going from `Clc1ccc(C2=CCN(CCSc3nnc4ccccn34)CC2)cc1` [Example 48, 3-[2-(4-(4-Chlorophenyl)-1,2,3,6-tetrahydropyridin-1-yl)ethylmercapto]-1,2,4-triazolo(4,3-a)pyridine] to `Fc1ccc(C2=CCN(CCSc3nnc4ccccn34)CC2)cc1` [Example 45, 3-[2-(4-(4-Fluorophenyl)-1,2,3,6-tetrahydropyridin-1-yl)ethylmercapto]-1,2,4-triazolo(4,3-a)pyridine], the ED50 rises from 16.1 mg/kg to 33 mg/kg (2-fold).

For `Cl.Cl.Fc1ccc(N2CCNCC2)c(F)c1` [Example 1, 4-(2,4-Difluorophenyl)piperazine dihydrochloride], the ED50 was 2.16 mg/kg.

Same assay, conditions: Mus musculus; 50% active dose with confidence limits; oral (gastric intubation), 1 hour before phenylbenzoquinone i.p.; twists and stretches counted 5th to 10th minute; mice; read-out: AD50 confidence limits

Compared with `Cc1cc2ccccc2n2c(SCCCN3CCN(c4ccc(F)cc4F)CC3)nnc12` [Example 66, 1-[3-(4-(2,4-Difluorophenyl)piperazin-1-yl)propylmercapto]-4-methyl-s-triazolo(4,3-a)quinoline], `Cc1cc2nnc(SCCN3CCN(c4ccc(F)cc4F)CC3)n2c2ccccc12` [Example 62, 1-[2-(4-(2,4-Difluorophenyl)piperazin-1-yl)ethylmercapto]-5-methyl-s-triazolo(4,3-a)quinoline] is 1.6-fold lower in ED50: 17.9 mg/kg for the first, 11 mg/kg for the second.

Compared with `Cc1cc2ccccc2n2c(SCCCN3CCN(c4cccc(C(F)(F)F)c4)CC3)nnc12` [Example 59, 1-[3-(4-(3-Trifluoromethylphenyl)piperazin-1-yl)propylmercapto]-4-methyl-s-triazolo(4,3-a)quinoline], `Cc1cc2ccccc2n2c(SCCN3CCN(c4cccc(C(F)(F)F)c4)CC3)nnc12` [Example 63, 1-[2-(4-(3-Trifluoromethylphenyl)piperazin-1-yl)ethylmercapto]-4-methyl-s-triazolo(4,3-a)quinoline] is 1.7-fold lower in ED50: 14.1 mg/kg for the first, 8.17 mg/kg for the second.

First: FC(F)(F)c1cccc(N2CCN(CCSc3nnc4c(C(F)(F)F)cccn34)CC2)c1.O=C(O)/C=C\C(=O)O [Example 24, 3-[2-(4-(3-Trifluoromethylphenyl)piperazin-1-yl)ethylmercapto]-8-trifluoromethyl-1,2,4-triazolo(4,3-a)pyridine maleate]
Second: FC(F)(F)c1cccc(N2CCN(CCSc3nnc4ccccn34)CC2)c1.O=C(O)/C=C\C(=O)O [Example 33, 3-[2-(4-(3-Trifluoromethylphenyl)piperazin-1-yl)ethylmercapto]-1,2,4-triazolo(4,3-a)pyridine maleate]
The ED50 of the first is 2.6-fold higher: 4.53 mg/kg for the first, 1.71 mg/kg for the second.

`Clc1cccc(N2CCN(CCSc3nnc4ccccn34)CC2)c1` [Example 49, 3-[2-(4-(3-Chlorophenyl)piperazin-1-yl)ethylmercapto]-1,2,4-triazolo(4,3-a)pyridine] and `Cl.Cl.Fc1ccccc1N1CCN(CCSc2nnc3ccccn23)CC1` [Example 41, 3-[2-(4-(2-Fluorophenyl)piperazin-1-yl)ethylmercapto]-1,2,4-triazolo(4,3-a)pyridine dihydrochloride] are within 1.5-fold of each other in ED50: 2.45 mg/kg for the first, 3.19 mg/kg for the second.

First: Fc1ccc(N2CCN(CCSc3nnc4c(C(F)(F)F)cccn34)CC2)c(F)c1 [Example 28, 3-[2-(4-(2,4-Difluorophenyl)piperazin-1-yl)ethylmercapto]-8-trifluoromethyl-1,2,4-triazolo(4,3-a)pyridine]
Second: Fc1ccc(N2CCN(CCCSc3nnc4c(C(F)(F)F)cccn34)CC2)c(F)c1 [Example 32, 3-[3-(4-(2,4-Difluorophenyl)piperazin-1-yl)propylmercapto]-8-trifluoromethyl-1,2,4-triazolo(4,3-a)pyridine]
The ED50 of the first is 1.8-fold higher: 22.4 mg/kg for the first, 12.6 mg/kg for the second.

`Fc1ccc(N2CCN(CCSc3nnc4ccccn34)CC2)c(F)c1` [Example 44, 3-[2-(4-(2,4-Difluorophenyl)piperazin-1-yl)ethylmercapto]-1,2,4-triazolo(4,3-a)pyridine] and `Fc1ccc(N2CCN(CCCSc3nnc4ccccn34)CC2)c(F)c1` [Example 43, 3-[3-(4-(2,4-Difluorophenyl)piperazin-1-yl)propylmercapto]-1,2,4-triazolo(4,3-a)pyridine] are within 1.5-fold of each other in ED50: 11 mg/kg for the first, 13.9 mg/kg for the second.

Going from `FC(F)(F)c1cccc(N2CCN(CCCSc3nnc4ccc5ccccc5n34)CC2)c1` [Example 57, 1-[3-(4-(3-Trifluoromethylphenyl)piperazin1-yl)propylmercapto]-s-triazolo(4,3-a)quinoline] to `Cc1ccc2nnc(SCCN3CCN(c4cccc(C(F)(F)F)c4)CC3)n2c1.Cl.Cl` [Example 31, 3-[2-(4-(3-Trifluoromethylphenyl)piperazin-1-yl)ethylmercapto]-6-methyl-1,2,4-triazolo(4,3-a)pyridine dihydrochloride], the ED50 falls from 8.56 mg/kg to 3.6 mg/kg (2.4-fold).
